Values after ≈ are worked out from the molar mass of the structure shown. Read-outs that look alike come from different tables or passages of the source.

One test deals with HL60/ADR. In words: reversal of drug resistance to Adriamycin, in vitro cytotoxicity assay (3H-leucine incorporation). It is filed as cell-based, human. The note with it: change in IC50 of Adriamycin; test compound at maximum noncytotoxic concentration (Conc. µM: 12, 6, 3, 4). The text has this: (§1) The cells used to analyze the reversal of drug resistance are the human leukemia cell lines HL60/s, HL60/Vinc, and HL60/ADR. HL60/s cells are not selected for drug resistance and are therefore sensitive to drug treatment (McGrath, et al., "Mechanisms of Multidrug Resistance in HL60 Cells. Analysis of Resistance Associated Membrane Proteins and Levels of MDR Gene Expression, Biochemical Pharmacology, 38: 3611-3619, 1989.). HL60/Vinc tumor cells are selected for resistance to vincristine and express a high level of the multidrug resistance-related protein, P-glycoProtein. Id. HL60/ADR cells are selected for resistance to Adriamycin but contain no detectable levels of P-glycoProtein. Id.
(§2) The in vitro cytotoxicity assays are performed by suspending the target cells into Minimum Essential Eagle's Medium (MEM) containing 25% of the normal leucine concentration and 10% dialyzed fetal calf serum. 2x10^4 cells are seeded into each well of 96 well microtiter plates and are incubated overnight in 5% CO2 at 37°C. The agents to be tested for reversal activity are serially diluted (100 µM, 50 µM, ..., 0.2 µM) in media and added to the cells. 48 hours after adding the reversal agents to the target cells, 4 µCi of ^3H-leucine are added to each well and are incubated for an additional 16 hours at 37°C. The cells are harvested and the amount of ^3H-leucine incorporation is determined. The concentration of reversal agent required for 50% inhibition of ^3H-leucine incorporation (IC50) is calculated. Subsequent studies using reversal agents in the presence of cytotoxic drug (i.e., Adriamycin) utilize maximal concentrations of reversal agents that are not cytotoxic by themselves. The reversal of drug resistance by the various test compounds is accomplished by adding the maximum noncytotoxic concentration of the test compounds to log dilutions of Adriamycin (10, 1, 0.1, ... 0.001 µg/ml) and calculating the change in IC50 observed for Adriamycin against the HL60/s, HL60/Vinc, and HL60/ADR cell lines in the above described in vitro cytotoxicity assay.

The subject of a further test is HL60/Adr cells. Nature of the test: cytotoxicity of oncolytic agents against HL60/Adr cells. Format: cell-based. As to conditions: Homo sapiens. The protocol: as §2
The next test has as its system HL60/S cells. In words: cytotoxicity of oncolytic agents against HL60/S cells. It is filed as cell-based. As to conditions: Homo sapiens, HL-60; HL60/S cells (drug sensitive, no P-glycoProtein). As for the experimental part:
as §2

Another test concerns HL60/VINC. Nature of the test: reversal of drug resistance to Adriamycin, in vitro cytotoxicity assay (3H-leucine incorporation). Format: cell-based, human. The note with it: change in IC50 of Adriamycin; test compound at maximum noncytotoxic concentration (Conc. µM column: 12, 4).
From the text: as §1, §2

Consider `C[C@]12CC[C@@H]3c4ccc(O)cc4CC[C@H]3[C@@H]1CC[C@@H]2O` [17∝ Estradiol], for which, in the test with HL60/ADR, the “Reversal Factor HL60/ADR” value is given as 1. Turning to `COc1cccc2c1C(=O)c1c(O)c3c(c(O)c1C2=O)C[C@@](O)(C(=O)CO)C[C@@H]3O[C@H]1C[C@H](N)[C@H](O)[C@H](C)O1` [Adriamycin, Doxorubicin], the IC50 (commonly the concentration that gives 50% inhibition) in the test with HL60/Adr cells (HL60/ADR) was 2.2 µg/mL (≈ 4.05 µM); in the test on HL60/S cells, 0.011 µg/mL (≈ 0.0202 µM). As to `COc1cc([C@@H]2c3cc4c(cc3[C@@H](O[C@@H]3O[C@@H]5CO[C@@H](C)O[C@H]5[C@H](O)[C@H]3O)[C@H]3COC(=O)[C@H]23)OCO4)cc(OC)c1O` [Etoposide], the IC50 in the test on HL60/Adr cells (HL60/Adr cells (resistant to doxorubicin, express P190), read-out: IC50) is greater than 10 µg/mL; in the test on HL60/S cells it was 0.39 µg/mL (≈ 0.663 µM). For `Cl.O=C(c1ccc(OCCN2CCCCC2)cc1)c1c(-c2ccc(O)cc2)sc2cc(O)ccc12` [Raloxifene HCL, raloxifene], the “Reversal Factor HL60/ADR” value in the test on HL60/ADR was 7.1. Consider `CC/C(=C(\c1ccccc1)c1ccc(OCCN(C)C)cc1)c1ccccc1` [Tamoxifen], for which the “Reversal Factor HL60/VINC” value with HL60/VINC is on record as 4.6. Besides, in the test with HL60/ADR, the “Reversal Factor HL60/ADR” value is on record as 1.4.

The record behind these values is EP0652004B1, “Methods for treating resistant neoplasms” (ELI LILLY AND COMPANY, priority 1993, dated 1995).
